Drawing on ChEMBL document CHEMBL5726216, “Derivatives and methods of treating hepatitis B infections” (2019), this text covers EC50 for 20 compounds.

For orientation: EC50 means the concentration at which the effect is half-maximal.

A short description of the assay: BDNA-assay: HBV replication inhibition by the compounds of this invention could be determined in cells infected or transfected with HBV, or cells with stably integrated HBV, such as HepG2.2.15 cells (Sells et al. 1987). In this example, HepG2.2.15 cells were maintained in cell culture medium containing 10% fetal bovine serum (FBS), Geneticin, L-glutamine, penicillin and streptomycin. HepG2.2.15 cells could be seeded in 96-well plates at a density of 40,000 cells/well and be treated with serially diluted compounds at a final DMSO concentration of 0.5% either alone or in combination by adding drugs in a checker box format. Cells were incubated with compounds for three days, after which medium was removed and fresh medium containing compounds was added to cells and incubated for another three days. At day 6, supernatant was removed and treated with DNase at 37° C. for 60 minutes, followed by enzyme inactivation at 75° C. for 15 minutes. Encapsidated HBV DNA was released from the virions and covalently linked HBV polymerase by incubating in lysis buffer (Affymetrix QS0010) containing […] proteinase K at 50° C. for 40 minutes. HBV DNA was denatured by addition of 0.2 M NaOH and detected using a branched DNA (BDNA) QuantiGene assay kit according to manufacturer recommendation (Affymetrix). HBV DNA levels could also be quantified using qPCR, based on amplification of encapsidated HBV DNA extraction with QuickExtraction Solution (Epicentre Biotechnologies) and amplification of HBV DNA using HBV specific PCR probes that can hybridize to HBV DNA and a fluorescently labeled probe for quantitation. In addition, cell viability of HepG2.2.15 cells incubated with test compounds alone or in combination was determined by using CellTitre-Glo reagent according to the manufacturer protocol (Promega). The mean background signal from wells containing only culture medium was subtracted from all other samples, and percent inhibition at each compound concentration was calculated by normalizing to signals from HepG2.2.15 cells treated with 0.5% DMSO using equation E1.
Turning to `CN(OC1CCC1)C(=O)c1n[nH]c2c1CN(C(=O)Nc1cccc(Cl)c1)CC2`, the EC50 was below 100 nM.

On to `CN(OCCO)C(=O)c1n[nH]c2c1CN(C(=O)Nc1cccc(Cl)c1)CC2`, for which the EC50 was below 500 nM.

Take `CCON(C)C(=O)c1n[nH]c2c1CN(C(=O)Nc1cccc(Cl)c1)CC2`: the 50% effective concentration (EC50) is below 100 nM. The value for `CCCON(C)C(=O)c1n[nH]c2c1CN(C(=O)Nc1cccc(Cl)c1)CC2` was below 500 nM; that for `CCN(OC)C(=O)c1n[nH]c2c1CN(C(=O)Nc1cccc(Cl)c1)CC2` was below 100 nM; that for `CC(C)ON(C)C(=O)c1n[nH]c2c1CN(C(=O)Nc1cccc(Cl)c1)CC2` was below 100 nM.

In the case of `CCCC(=O)c1n[nH]c2c1CN(C(=O)Nc1cccc(Cl)c1)CC2`, the EC50 was below 100 nM. The value for `CN(OC1CCOC1)C(=O)c1n[nH]c2c1CN(C(=O)Nc1cccc(Cl)c1)CC2` (stereo not given) was below 500 nM; that for `CON(C(=O)c1n[nH]c2c1CN(C(=O)Nc1cccc(Cl)c1)CC2)C(C)C` was below 500 nM.

`CN1CC(ON(C)C(=O)c2n[nH]c3c2CN(C(=O)Nc2cccc(Cl)c2)CC3)C1`: the EC50 was below 500 nM. With `CON(C)C(=O)c1n[nH]c2c1CN(C(=O)Nc1cccc(Cl)c1)CC2` the figure was below 100 nM; with `O=C(Nc1cccc(Cl)c1)N1CCc2[nH]nc(C(=O)N3CCCO3)c2C1`, below 500 nM. The value for `CN(OCC1CC1)C(=O)c1n[nH]c2c1CN(C(=O)Nc1cccc(Cl)c1)CC2` was below 500 nM. With `O=C(Nc1cccc(Cl)c1)N1CCc2[nH]nc(C(=O)N3CC(O)CO3)c2C1` (stereo not given) the figure was below 1000 nM. Take `CCC(=O)c1n[nH]c2c1CN(C(=O)Nc1cccc(Cl)c1)CC2`: the EC50 is below 500 nM. `CC(C)CON(C)C(=O)c1n[nH]c2c1CN(C(=O)Nc1cccc(Cl)c1)CC2`: the EC50 was below 500 nM. With `O=C(Nc1cccc(Cl)c1)N1CCc2[nH]nc(C(=O)N3CC(F)CO3)c2C1` (stereo not given) the figure was below 100 nM; with `COCCON(C)C(=O)c1n[nH]c2c1CN(C(=O)Nc1cccc(Cl)c1)CC2`, below 500 nM. With `CN(O)C(=O)c1n[nH]c2c1CN(C(=O)Nc1cccc(Cl)c1)CC2` the figure was below 1000 nM; with `CN(C)N(C)C(=O)c1n[nH]c2c1CN(C(=O)Nc1cccc(Cl)c1)CC2`, below 100 nM.
